What was measured:
[1] = target: Mitogen-activated protein kinase 1 (Homo sapiens) (UniProt P28482); experiment: MAPK1 SGC Tm panel (DSF); details: Compound concentration 20.0 uM
[2] = target: Transcription initiation factor TFIID subunit 1 (Homo sapiens) (UniProt P21675); experiment: TAF1 SGC Tm panel (DSF); details: Compound concentration 20.0 uM
[3] = target: T1, Zinc finger protein 131 (Homo sapiens) (UniProt P52739); details: SUD4, Compound concentration 1.0 uM
T1 sequence (whole entry): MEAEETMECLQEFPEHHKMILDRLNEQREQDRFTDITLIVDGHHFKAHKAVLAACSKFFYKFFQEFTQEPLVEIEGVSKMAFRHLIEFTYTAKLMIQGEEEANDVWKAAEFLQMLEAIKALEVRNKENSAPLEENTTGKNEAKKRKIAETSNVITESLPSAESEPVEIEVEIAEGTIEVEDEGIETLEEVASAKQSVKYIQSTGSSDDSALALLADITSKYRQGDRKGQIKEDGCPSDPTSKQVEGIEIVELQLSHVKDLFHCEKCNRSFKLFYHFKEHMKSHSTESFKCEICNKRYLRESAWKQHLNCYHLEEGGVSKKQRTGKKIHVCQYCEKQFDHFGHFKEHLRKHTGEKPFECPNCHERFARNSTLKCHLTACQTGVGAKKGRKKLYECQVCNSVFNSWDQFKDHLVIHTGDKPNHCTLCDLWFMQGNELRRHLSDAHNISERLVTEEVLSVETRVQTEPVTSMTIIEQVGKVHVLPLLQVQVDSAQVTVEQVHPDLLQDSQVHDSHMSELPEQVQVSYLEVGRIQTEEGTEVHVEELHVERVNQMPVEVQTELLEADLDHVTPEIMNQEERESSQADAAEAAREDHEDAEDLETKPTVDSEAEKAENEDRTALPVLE

[4] = target: Serine/threonine-protein kinase PAK 1 (Homo sapiens) (UniProt Q13153); experiment: PAK1 SGC Tm panel (DSF); details: Compound concentration 20.0 uM
[5] = target: 5-hydroxytryptamine receptor 2A (Homo sapiens) (UniProt P28223); details: Compound concentration 10.0 uM
[6] = target: 5-hydroxytryptamine receptor 3A (Homo sapiens) (UniProt P46098); details: Compound concentration 10.0 uM
[7] = target: T2, Zinc finger and BTB domain-containing protein 9 (Homo sapiens) (UniProt Q96C00); details: SUD4, Compound concentration 1.0 uM
T2 sequence (whole entry): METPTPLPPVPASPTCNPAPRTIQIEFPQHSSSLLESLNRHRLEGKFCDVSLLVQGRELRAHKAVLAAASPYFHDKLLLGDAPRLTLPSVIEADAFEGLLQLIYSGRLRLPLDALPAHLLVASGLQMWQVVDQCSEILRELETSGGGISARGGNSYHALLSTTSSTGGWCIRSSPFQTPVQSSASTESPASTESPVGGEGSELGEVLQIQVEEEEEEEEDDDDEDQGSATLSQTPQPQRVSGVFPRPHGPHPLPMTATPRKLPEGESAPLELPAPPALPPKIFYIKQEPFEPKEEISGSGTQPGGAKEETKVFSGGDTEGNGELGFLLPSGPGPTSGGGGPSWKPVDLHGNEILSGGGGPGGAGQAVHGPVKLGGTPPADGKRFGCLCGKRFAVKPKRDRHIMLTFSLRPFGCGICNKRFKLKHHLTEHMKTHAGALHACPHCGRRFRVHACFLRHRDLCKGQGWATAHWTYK

[8] = target: Sodium-dependent noradrenaline transporter (Homo sapiens) (UniProt P23975); details: Compound concentration 10.0 uM
[9] = target: Serine/threonine-protein kinase 17A (Homo sapiens) (UniProt Q9UEE5); experiment: STK17A SGC Tm panel (DSF); details: Compound concentration 20.0 uM
[10] = target: T3, Zinc finger and BTB domain-containing protein 24 (Homo sapiens) (UniProt O43167); details: OCI-Ly1, Compound concentration 1.0 uM
T3 sequence (whole entry): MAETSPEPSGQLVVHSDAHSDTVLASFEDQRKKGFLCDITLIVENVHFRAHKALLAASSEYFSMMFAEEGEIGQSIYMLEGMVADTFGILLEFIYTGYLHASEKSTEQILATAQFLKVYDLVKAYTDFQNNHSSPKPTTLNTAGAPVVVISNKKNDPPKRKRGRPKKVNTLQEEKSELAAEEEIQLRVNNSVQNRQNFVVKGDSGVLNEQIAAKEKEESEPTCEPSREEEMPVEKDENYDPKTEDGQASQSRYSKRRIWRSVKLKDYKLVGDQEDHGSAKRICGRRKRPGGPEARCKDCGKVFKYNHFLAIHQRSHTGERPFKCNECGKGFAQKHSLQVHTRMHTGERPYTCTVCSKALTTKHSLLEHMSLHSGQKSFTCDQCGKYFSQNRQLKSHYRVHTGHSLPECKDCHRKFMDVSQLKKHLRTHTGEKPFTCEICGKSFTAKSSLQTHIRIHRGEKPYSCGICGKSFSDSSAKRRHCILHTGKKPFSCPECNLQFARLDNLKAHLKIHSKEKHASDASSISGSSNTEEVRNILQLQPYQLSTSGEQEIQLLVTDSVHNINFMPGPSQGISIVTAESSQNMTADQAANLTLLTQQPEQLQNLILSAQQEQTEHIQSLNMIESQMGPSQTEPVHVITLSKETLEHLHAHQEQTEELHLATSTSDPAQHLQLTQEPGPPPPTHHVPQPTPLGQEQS

[11] = target: Mitogen-activated protein kinase 15 (Homo sapiens) (UniProt Q8TD08); experiment: MAPK15 SGC Tm panel (DSF); details: Compound concentration 20.0 uM
[12] = target: Tyrosine-protein kinase ABL1 (Homo sapiens) (UniProt P00519); experiment: ABL1 SGC Tm panel (DSF); details: Compound concentration 20.0 uM
[13] = target: Serine/threonine-protein kinase Nek7 (Homo sapiens) (UniProt Q8TDX7); experiment: NEK7 SGC Tm panel (DSF); details: Compound concentration 20.0 uM
Chain of Serine/threonine-protein kinase Nek7 (Homo sapiens) (Q8TDX7 whole entry, looked up): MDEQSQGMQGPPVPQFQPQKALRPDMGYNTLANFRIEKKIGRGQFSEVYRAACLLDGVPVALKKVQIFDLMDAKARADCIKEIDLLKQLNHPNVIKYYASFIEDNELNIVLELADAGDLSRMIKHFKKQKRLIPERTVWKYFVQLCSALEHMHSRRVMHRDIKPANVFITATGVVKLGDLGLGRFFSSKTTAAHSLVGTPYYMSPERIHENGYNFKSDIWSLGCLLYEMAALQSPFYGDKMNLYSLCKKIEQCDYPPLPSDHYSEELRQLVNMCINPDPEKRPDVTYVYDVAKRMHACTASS

Chain of Tyrosine-protein kinase ABL1 (Homo sapiens) (P00519 whole entry): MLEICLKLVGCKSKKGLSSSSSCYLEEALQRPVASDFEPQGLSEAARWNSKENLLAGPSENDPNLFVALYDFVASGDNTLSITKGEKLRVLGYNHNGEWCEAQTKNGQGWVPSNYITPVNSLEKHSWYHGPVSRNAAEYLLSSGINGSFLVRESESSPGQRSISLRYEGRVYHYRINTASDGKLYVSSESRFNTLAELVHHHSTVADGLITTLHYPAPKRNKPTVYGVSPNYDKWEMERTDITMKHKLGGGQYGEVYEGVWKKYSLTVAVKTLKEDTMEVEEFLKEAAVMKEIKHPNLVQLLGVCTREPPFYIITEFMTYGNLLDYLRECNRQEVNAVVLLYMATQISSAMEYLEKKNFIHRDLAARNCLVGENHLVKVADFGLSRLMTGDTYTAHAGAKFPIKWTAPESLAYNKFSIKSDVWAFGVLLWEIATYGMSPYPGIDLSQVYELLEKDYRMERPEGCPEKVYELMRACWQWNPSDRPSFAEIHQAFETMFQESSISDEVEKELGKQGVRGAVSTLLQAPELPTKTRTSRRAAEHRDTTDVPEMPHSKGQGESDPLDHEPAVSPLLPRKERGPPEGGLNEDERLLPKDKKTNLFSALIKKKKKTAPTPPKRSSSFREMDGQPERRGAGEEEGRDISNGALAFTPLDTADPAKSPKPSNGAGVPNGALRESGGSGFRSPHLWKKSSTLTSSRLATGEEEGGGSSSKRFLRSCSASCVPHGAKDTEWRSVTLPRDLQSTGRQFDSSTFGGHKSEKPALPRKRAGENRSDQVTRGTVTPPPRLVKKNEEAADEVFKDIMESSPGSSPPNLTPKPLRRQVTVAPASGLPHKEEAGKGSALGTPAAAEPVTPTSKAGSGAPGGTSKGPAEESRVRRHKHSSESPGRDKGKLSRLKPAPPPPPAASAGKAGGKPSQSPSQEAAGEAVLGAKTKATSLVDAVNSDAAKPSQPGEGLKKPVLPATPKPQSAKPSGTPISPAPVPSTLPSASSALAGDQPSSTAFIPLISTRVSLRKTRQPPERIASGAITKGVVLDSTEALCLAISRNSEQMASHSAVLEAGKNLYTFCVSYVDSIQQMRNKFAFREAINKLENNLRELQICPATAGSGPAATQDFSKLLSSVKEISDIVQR
Chain of 5-hydroxytryptamine receptor 3A (Homo sapiens) (P46098 whole entry, the tested form may be a part): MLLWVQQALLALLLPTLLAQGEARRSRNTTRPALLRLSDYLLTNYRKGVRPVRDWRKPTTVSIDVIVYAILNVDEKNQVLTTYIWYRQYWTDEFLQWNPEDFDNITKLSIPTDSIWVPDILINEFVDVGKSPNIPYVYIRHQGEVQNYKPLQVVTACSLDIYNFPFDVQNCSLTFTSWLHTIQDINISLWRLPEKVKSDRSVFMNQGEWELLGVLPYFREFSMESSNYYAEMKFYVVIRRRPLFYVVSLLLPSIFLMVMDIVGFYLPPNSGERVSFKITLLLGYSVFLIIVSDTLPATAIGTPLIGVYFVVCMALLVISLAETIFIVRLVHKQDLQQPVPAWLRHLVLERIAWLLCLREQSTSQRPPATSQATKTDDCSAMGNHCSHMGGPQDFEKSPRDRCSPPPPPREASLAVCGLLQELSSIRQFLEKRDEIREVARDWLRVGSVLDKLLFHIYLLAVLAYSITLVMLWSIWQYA
Chain of Serine/threonine-protein kinase PAK 1 (Homo sapiens) (Q13153 whole entry): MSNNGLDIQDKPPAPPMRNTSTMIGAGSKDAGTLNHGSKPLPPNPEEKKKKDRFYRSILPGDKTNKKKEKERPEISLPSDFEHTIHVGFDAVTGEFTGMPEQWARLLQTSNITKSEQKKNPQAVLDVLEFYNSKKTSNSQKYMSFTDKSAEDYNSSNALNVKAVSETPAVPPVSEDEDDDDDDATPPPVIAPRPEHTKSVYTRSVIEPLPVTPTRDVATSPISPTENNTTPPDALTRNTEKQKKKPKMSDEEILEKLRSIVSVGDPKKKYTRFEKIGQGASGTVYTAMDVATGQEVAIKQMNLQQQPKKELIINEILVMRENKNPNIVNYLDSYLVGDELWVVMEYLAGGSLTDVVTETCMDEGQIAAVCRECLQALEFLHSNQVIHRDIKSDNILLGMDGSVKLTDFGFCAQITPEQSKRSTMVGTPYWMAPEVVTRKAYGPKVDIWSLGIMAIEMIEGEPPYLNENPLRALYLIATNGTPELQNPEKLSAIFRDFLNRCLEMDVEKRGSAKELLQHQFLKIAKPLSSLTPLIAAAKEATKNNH
Chain of Transcription initiation factor TFIID subunit 1 (Homo sapiens) (P21675 whole entry): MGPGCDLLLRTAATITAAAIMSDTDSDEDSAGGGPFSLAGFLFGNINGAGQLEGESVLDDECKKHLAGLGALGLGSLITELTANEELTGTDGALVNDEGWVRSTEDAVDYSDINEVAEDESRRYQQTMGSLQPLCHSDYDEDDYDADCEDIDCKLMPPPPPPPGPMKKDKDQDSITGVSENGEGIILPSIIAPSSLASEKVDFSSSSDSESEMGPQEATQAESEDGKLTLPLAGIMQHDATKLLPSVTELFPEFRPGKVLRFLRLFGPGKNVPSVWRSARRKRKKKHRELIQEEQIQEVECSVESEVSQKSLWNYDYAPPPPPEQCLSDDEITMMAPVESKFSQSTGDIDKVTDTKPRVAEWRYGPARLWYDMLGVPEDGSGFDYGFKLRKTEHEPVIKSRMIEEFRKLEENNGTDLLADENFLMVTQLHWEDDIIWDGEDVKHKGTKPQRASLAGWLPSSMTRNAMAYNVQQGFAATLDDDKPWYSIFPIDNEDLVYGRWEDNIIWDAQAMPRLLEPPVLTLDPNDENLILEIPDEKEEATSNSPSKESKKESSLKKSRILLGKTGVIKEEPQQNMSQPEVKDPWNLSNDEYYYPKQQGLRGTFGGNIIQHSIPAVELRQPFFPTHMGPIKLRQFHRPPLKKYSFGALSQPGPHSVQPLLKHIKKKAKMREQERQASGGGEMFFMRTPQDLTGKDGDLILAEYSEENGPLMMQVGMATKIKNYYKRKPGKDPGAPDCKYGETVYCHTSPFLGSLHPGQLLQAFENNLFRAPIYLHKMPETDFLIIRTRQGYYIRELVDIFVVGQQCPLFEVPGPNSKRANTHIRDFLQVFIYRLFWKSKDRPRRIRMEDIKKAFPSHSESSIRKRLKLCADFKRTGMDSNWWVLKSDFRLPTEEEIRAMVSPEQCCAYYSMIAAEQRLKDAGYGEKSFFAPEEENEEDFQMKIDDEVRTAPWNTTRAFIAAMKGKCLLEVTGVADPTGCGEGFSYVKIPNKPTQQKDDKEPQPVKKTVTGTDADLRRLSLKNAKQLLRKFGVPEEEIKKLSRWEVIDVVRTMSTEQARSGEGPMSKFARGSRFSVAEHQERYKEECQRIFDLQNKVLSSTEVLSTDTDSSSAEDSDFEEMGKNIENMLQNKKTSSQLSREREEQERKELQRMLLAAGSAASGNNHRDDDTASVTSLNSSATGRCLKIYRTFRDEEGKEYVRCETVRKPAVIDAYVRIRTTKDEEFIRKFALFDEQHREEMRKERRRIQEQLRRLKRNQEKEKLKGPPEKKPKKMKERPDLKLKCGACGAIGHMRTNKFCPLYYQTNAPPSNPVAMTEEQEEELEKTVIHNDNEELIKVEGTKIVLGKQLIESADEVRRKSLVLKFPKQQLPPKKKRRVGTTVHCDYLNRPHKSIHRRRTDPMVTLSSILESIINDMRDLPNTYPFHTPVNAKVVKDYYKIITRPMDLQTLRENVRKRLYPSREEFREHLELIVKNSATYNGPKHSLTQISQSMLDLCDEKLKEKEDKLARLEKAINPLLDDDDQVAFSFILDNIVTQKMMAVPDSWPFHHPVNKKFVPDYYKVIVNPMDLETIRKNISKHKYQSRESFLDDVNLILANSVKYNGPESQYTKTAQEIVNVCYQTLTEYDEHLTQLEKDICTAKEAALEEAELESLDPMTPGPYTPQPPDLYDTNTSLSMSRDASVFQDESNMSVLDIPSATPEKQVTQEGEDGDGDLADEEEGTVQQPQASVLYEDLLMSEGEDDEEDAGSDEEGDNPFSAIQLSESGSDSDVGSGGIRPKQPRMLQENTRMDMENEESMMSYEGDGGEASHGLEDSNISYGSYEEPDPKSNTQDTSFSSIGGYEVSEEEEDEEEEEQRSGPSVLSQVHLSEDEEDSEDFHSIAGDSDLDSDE
Chain of Mitogen-activated protein kinase 1 (Homo sapiens) (P28482 whole entry): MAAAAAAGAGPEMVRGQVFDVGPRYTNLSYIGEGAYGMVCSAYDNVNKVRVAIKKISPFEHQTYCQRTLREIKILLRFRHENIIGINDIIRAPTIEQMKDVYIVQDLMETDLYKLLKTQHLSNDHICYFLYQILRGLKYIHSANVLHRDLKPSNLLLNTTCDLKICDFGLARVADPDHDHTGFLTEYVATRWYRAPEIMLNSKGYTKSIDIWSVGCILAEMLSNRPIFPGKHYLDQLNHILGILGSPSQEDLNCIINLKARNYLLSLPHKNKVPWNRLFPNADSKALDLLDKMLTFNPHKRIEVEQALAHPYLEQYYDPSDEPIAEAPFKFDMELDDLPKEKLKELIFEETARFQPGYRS

Tm [1]: 56 °C
Tm [2]: 56 °C
LogFC [3]: 0.111
Tm [4]: 46 °C
inhibition [5]: 23.6%
inhibition [6]: -5.81%
LogFC [7]: 0.0873
inhibition [8]: 18.1%
Tm [9]: 42 °C
LogFC [10]: -0.111
Tm [12]: 46 °C
Tm [13]: 42 °C
Compound: C[C@@H]1CN(c2ncc(Cl)c(Nc3ccc4c(c3)n(CCC(C)(C)O)c(=O)n4C)n2)C[C@H](C)C1(F)F
Tm [11]: 50 °C

— ChEMBL document CHEMBL5058646 (2022)
